Source: ChEMBL document CHEMBL1201862, “PubChem BioAssay data set” (2004)
Active and inactive are the calls of the source.

Legend:
Caspase-6 = biological target: T1, Caspase-6 (Homo sapiens, UniProt P55212); assay: inhibition of CASP6 peptide cleavage – biochemical, VEID-R110 fluorescence, cherry-pick, dose response (AID 720632)
T1 sequence (P55212 whole entry): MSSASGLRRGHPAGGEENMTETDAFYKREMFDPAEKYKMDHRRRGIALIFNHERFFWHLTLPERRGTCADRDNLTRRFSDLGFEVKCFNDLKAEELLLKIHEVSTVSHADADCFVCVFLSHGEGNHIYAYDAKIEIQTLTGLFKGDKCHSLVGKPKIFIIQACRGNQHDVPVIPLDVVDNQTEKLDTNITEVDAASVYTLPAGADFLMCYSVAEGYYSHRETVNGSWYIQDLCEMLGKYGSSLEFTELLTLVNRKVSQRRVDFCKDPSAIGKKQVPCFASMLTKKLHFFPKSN

[1] = THP-1 cell cytotoxicity, dose response, cytotoxicity control for non-replicating M. tuberculosis project (AID 489025); format: functional
[2] = Vero E6 cell cytotoxicity, dose response, cytotoxicity control for non-replicating M. tuberculosis project, secondary assay (AID 492998); format: functional, VeroE6; conditions: Vero C1008
[3] = HEK-293T viability loss after treatment – luminescence, T-cell screen hits, cytotoxicity control for TCR NF-kB inhibitor project, dose response (AID 489026); format: functional, cell-based;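 further: cells exposed to compound about 14 hours before the viability readout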
cells [4] = format: functional
[5] = biological target: Peroxisome proliferator-activated receptor gamma/Nuclear receptor coactivator 2 (Homo sapiens, UniProt P37231); format: functional;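 further: agonist potency for raising coactivator recruitment to the receptor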
[6] = biological target: Peroxisome proliferator-activated receptor gamma/Nuclear receptor coactivator 1 (Homo sapiens, UniProt P37231); format: functional;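 further: agonist potency as compounds enhance coactivator SRC-1 recruitment to PPARgamma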
[7] = biological target: Peroxisome proliferator-activated receptor gamma/Nuclear receptor coactivator 3 (Homo sapiens, UniProt P37231); format: functional;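 further: agonist potency for raising coactivator recruitment to the receptor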
[8] = Trypanosoma cruzi growth suppression in host cells – NIH3T3 host cells, beta-gal luminescence, confirmation (AID 2044); format: functional, cell-based;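 further: intracellular parasites grown in NIH/3T3 mouse fibroblasts as host cells; luminescent beta-galactosidase reporter signal from transgenic T. cruzi replicating inside host cells; inhibitors lower the luminescence signal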
[9] = NIH3T3 cell viability loss – ATP luminescence, mouse fibroblasts, counter-screen, dose response (AID 2010); format: functional, cell-based;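 further: cells exposed to compound for about 90 hours before reading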
cells [10] = format: functional, cell-based
[11] = biological target: T2, Nuclear receptor subfamily 0 group B member 1 (Homo sapiens, UniProt P51843); format: functional, cell-based;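 further: HEK293T cells transfected with SF-1 and DAX-1 plus StAR promoter luciferase reporter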
T2 sequence (P51843 whole entry): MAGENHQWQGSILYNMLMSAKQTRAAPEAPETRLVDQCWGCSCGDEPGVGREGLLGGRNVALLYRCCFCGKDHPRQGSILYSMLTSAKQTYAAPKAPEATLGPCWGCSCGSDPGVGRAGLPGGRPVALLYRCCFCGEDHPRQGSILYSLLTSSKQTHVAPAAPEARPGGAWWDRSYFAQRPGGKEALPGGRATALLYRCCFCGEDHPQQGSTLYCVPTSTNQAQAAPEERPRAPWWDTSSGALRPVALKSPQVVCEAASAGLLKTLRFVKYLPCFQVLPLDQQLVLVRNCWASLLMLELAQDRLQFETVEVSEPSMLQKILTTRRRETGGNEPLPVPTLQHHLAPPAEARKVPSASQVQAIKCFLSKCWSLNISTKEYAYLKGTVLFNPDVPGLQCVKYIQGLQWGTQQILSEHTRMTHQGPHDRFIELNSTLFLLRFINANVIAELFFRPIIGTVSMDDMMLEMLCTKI

[12] = biological target: T3, Sentrin-specific protease 8 (Homo sapiens, UniProt Q96LD8); format: functional
T3 sequence (Q96LD8 whole entry): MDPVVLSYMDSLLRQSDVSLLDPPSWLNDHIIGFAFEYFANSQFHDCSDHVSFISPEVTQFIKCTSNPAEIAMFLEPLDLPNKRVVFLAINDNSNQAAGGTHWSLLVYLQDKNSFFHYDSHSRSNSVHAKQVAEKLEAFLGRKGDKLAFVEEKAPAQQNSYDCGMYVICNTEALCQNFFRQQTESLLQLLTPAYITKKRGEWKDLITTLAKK

[13] = biological target: T3, Sentrin-specific protease 8; format: functional; remark: listed apart in the source
[14] = A cytotoxicity screen of small molecule inhibitors of the PhoP region in Salmonella typhi identified in the primary screen. [Related pubchem assays: 1850, 1864, 1985 ]; format: functional
[15] = growth inhibition of yeast DHODH-expressing 3D7 parasites – SYBR Green, dry powder samples, dose response (AID 1159570); format: functional, cell-based;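 further: parasite growth measured after 72 hours of compound exposure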
[16] = P. falciparum Dd2 growth inhibitors, dose response, SYBR Green, cherry-picked samples (AID 1159567); format: functional, cell-based
[17] = Dd2 malaria parasite growth inhibition potency – SYBR Green, dry powder samples, dose response (AID 1159566); format: functional, cell-based;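 further: potency for growth inhibition with lower SYBR green DNA signal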
[18] = growth inhibition of PfATP4-mutant resistant parasites – NITD609-resistant line, SYBR Green, dry powder, dose response (AID 1159571); format: functional, cell-based;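 further: parasites synchronized at ring stage by sorbitol before testing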
fMet-Leu-Phe receptor = biological target: T4, fMet-Leu-Phe receptor (Homo sapiens, UniProt P21462); assay: formyl peptide receptor binders – dose response (AID 519); format: functional
T4 sequence (P21462 whole entry): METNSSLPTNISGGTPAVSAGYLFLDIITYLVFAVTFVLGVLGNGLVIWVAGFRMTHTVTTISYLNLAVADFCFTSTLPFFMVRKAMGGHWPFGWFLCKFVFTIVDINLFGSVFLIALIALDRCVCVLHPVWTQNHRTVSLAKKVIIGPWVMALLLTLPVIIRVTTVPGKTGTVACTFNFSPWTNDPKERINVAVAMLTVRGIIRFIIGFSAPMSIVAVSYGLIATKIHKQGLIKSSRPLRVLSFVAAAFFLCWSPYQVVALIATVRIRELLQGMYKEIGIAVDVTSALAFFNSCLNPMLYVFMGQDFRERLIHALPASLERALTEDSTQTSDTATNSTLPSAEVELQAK

[19] = blockers of HIV-1 envelope-mediated cell-cell fusion – cherry-pick, dose response (AID 652057); format: functional, cell-based
[20] = viability loss in CEM21 cells – cell-based, CellTiter-Glo luminescence, cherry-picked, cytotoxicity control for viral fusion inhibitor project, dose response (AID 652042); format: functional;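 further: potency for signal decrease meaning cytotoxicity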
[21] = blockers of HIV-1 ZM109 envelope-driven cell-cell fusion – HeLa effector, CEM target cells, luciferase, cherry-pick, dose response (AID 652058); format: functional, cell-based;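 further: luciferase signal from HIV-1 Env mediated cell-cell fusion of effector and target cells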
[22] = off-target signal loss in HeLa-CEM21 co-culture – HeLa F-luc CTL cells, cherry-picked, counter-screen for HIV-1 Env fusion inhibitor project, dose response (AID 652040); format: functional, cell-based;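 further: potency for signal decrease marking cytotoxic or nonspecific inhibition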
[23] = HIV-1 AD8 envelope cell-cell fusion blockers – cherry-pick, dose response (AID 652062); format: functional, cell-based;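 further: luciferase signal from cell-cell fusion driven by HIV-1 clade B AD8 Env; potency is for inhibitors of fusion seen as a drop in luminescence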
HEK293 [24] = assay: cells; conditions: Homo sapiens
HEK293 [25] = assay: cells; conditions: Homo sapiens; remark: listed apart in the source

Chain of Peroxisome proliferator-activated receptor gamma/Nuclear receptor coactivator 2 (P37231 whole entry): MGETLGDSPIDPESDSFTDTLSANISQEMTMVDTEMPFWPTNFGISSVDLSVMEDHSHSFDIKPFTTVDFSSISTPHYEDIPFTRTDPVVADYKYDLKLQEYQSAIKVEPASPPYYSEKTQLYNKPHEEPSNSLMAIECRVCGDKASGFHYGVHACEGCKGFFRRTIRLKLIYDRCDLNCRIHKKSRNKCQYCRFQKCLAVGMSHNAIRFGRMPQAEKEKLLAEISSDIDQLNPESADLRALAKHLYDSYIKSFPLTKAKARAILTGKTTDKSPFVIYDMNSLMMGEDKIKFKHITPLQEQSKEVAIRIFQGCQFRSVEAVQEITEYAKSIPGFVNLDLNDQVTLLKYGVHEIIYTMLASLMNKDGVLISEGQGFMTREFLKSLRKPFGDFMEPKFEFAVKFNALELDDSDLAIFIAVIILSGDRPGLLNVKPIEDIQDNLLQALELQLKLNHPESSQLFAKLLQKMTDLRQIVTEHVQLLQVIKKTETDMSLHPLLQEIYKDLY
Chain of Peroxisome proliferator-activated receptor gamma/Nuclear receptor coactivator 2 (Q15596 whole entry, further chain): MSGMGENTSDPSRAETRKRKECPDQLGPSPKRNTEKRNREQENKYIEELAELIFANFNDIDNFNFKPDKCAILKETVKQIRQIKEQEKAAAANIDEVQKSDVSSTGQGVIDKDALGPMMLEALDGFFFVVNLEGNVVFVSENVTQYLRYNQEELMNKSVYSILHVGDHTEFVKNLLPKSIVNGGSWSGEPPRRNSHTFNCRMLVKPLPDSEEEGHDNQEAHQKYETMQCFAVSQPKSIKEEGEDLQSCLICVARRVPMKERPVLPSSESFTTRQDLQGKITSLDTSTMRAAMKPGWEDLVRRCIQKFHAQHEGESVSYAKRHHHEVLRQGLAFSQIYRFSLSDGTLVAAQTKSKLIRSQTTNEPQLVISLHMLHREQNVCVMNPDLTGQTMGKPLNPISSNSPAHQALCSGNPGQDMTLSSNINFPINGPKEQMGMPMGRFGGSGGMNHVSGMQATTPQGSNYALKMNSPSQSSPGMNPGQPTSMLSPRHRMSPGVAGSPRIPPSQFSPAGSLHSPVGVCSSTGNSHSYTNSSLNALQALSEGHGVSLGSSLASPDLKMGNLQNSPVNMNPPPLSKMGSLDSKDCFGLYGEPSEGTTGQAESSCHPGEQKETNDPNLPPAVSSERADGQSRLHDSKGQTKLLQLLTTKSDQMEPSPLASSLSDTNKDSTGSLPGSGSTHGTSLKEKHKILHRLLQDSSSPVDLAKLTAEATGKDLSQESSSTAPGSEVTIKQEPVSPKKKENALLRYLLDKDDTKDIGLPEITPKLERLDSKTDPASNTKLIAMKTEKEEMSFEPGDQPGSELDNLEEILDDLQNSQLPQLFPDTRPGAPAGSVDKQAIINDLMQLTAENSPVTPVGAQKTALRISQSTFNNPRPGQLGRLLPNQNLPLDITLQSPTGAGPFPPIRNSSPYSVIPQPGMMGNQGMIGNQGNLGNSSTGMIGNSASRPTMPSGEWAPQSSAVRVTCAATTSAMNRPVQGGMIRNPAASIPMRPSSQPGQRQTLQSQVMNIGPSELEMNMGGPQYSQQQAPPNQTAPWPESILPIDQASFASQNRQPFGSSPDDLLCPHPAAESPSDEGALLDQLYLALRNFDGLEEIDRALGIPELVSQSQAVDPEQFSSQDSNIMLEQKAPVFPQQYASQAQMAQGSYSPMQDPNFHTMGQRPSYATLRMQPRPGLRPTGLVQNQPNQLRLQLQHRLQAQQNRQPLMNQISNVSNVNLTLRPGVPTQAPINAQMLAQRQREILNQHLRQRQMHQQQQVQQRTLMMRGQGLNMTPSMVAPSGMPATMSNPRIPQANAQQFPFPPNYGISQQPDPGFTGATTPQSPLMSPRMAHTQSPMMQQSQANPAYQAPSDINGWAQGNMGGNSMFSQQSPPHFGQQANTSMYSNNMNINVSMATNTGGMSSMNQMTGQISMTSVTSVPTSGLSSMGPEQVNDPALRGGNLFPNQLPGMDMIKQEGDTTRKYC
Chain of Peroxisome proliferator-activated receptor gamma/Nuclear receptor coactivator 1 (P37231 whole entry): as the sequence (P37231 whole entry) above
Chain of Peroxisome proliferator-activated receptor gamma/Nuclear receptor coactivator 1 (Q15788 whole entry, further chain): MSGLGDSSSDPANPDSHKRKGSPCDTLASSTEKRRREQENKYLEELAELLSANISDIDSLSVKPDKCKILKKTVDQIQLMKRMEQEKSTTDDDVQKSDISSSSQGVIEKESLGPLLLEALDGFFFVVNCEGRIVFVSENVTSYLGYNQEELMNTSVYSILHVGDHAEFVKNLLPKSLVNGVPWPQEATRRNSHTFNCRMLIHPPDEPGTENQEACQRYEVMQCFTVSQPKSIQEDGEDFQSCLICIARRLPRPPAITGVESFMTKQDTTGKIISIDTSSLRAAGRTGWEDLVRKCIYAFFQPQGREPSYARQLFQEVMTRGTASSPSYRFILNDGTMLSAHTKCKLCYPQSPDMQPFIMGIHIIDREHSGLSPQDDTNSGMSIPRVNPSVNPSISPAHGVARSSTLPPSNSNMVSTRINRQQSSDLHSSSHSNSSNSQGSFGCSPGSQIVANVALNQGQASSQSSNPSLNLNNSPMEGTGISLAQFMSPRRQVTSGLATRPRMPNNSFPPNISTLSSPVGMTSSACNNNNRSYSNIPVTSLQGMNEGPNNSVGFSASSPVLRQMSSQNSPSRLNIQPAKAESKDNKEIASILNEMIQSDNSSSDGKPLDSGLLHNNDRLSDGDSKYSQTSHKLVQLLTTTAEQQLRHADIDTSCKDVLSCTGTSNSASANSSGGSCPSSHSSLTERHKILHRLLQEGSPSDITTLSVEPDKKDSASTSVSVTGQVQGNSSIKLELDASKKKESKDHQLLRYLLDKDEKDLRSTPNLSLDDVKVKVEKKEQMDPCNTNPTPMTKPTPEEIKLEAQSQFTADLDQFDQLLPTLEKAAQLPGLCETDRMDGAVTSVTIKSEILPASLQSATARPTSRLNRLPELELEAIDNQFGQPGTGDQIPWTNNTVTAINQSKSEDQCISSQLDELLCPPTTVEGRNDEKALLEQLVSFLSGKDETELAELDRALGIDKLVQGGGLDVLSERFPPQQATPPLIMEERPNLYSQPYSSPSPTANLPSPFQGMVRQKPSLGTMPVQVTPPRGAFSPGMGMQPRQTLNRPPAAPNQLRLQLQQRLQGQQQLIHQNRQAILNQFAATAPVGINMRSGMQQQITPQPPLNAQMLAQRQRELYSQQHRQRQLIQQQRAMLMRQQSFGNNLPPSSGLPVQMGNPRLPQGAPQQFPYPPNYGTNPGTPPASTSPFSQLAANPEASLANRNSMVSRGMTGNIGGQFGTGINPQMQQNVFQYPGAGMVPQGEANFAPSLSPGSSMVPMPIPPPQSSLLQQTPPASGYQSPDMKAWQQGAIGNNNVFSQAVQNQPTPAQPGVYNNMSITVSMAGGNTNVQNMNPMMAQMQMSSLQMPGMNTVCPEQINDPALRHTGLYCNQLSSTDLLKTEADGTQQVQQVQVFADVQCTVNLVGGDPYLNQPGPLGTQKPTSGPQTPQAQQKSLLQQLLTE

O=C(O)C1Oc2cc3ccccc3cc2O1
AC50 (Caspase-6): 8.44 µM (active)

Cc1ccc(/C=N/NC(=O)C2COc3ccccc3O2)s1 (configuration not stated)
CC50 [1]: 4.18 µM (active) | CC50 [2]: 8.33 µM (active) | IC50 [3]: > 80 µM (inactive) | IC50 (cells [4]): 7.88 µM (active)

Brc1ccc(/C=N/c2ccc(Nc3ccccc3)cc2)s1
EC50 [5]: > 79.4 µM (not active) | EC50 [6]: > 79.4 µM (not active) | EC50 [7]: > 79.4 µM (not active)

O=C(CCS(=O)(=O)c1ccccc1)N(CCCN1CCOCC1)c1nc2ccc(F)cc2s1
EC50 [8]: 2.06 µM (active) | EC50 [9]: 6.18 µM (active) | IC50 (cells [10]): > 67.5 µM (inactive) | IC50 [11]: > 67.5 µM (inactive)

O=C1Cc2ccccc2C(=O)N1Cc1cccc(Cl)c1
IC50 [12]: > 100 µM (inactive) | IC50 [13]: 0.528 µM (active) | AC50 (Caspase-6): 13 µM (active)

CC(=O)c1c(C)[nH]c(C(=O)OCC(=O)NCC(C)C)c1C
EC50 [14]: > 50 µM (active)

CC[N+](C)(CC)CCC[n+]1c(-c2ccccc2)c2cc(N)ccc2c2ccc(N)cc21 [PROPIDIUM]
EC50 [14]: > 50 µM (active)

O=C(Nc1ccccc1F)N1CCCCN2[C@H](CO)[C@H](c3ccc(C#Cc4cccnc4)cc3)[C@@H]2C1
AC50 [15]: 0.452 µM (active) | AC50 [16]: 0.86 µM (active) | AC50 [17]: 0.507 µM (active) | AC50 [18]: 0.504 µM (active)

CCOC(=O)COc1ccc(/C=C2\NC(=S)N(CC)C2=O)cc1
EC50 [5]: > 79.4 µM (not active) | EC50 [6]: > 79.4 µM (not active) | EC50 [7]: > 79.4 µM (not active) | CC50 [1]: > 40 µM (active) | IC50 (cells [4]): 3.34 µM (active)

N[C@@H](Cc1ccc(O)c(I)c1)C(=O)O [IOTYROSINE]
Ki (fMet-Leu-Phe receptor): > 66.7 µM (inactive)

COc1cccc(Nc2nc(C(N)CCc3ccccc3)cs2)n1 (configuration not stated)
AC50 [19]: 1.96 µM (active) | AC50 [20]: 17.1 µM (active) | AC50 [21]: 3.98 µM (active) | AC50 [22]: 3.37 µM (active) | AC50 [23]: 3.36 µM (active) | EC50 (HEK293 [24]): > 59.6 µM (inactive) | EC50 (HEK293 [25]): > 59.6 µM (inactive)

CCCCNC(=O)CSc1nc2ccccc2c(=O)n1Cc1ccc2c(c1)OCO2
EC50 [5]: > 79.4 µM (not active) | EC50 [6]: > 79.4 µM (not active) | EC50 [7]: > 79.4 µM (not active)
